Source: article PMC9226124, “Macrocycle-stabilization of its interaction with 14-3-3 increases plasma membrane localization and activity of CFTR” (Nature Communications, 2022)
Where “and” joins values, the source holds several entries; their conditions need not be identical. Equal values may be shown once.

Tests used:
[1] = target: T1, 3HA-tagged F508del-CFTR in BHK cells (Homo sapiens, UniProt P13569, DEL508-508); test: CFTR trafficking assay (surface expression); type: cell-based, hamster; details: individual replicates
T1 construct: expressed in transfected cells; host or cells: baby hamster kidney (BHK) cells (Carlile et al. 2007)
Summary of the method: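 BHK cells expressing 3HA-tagged F508del-CFTR treated 24 h with 10 μM compound (1% DMSO final), fixed, stained with anti-HA plus FITC-conjugated anti-mouse IgG. Fluorescence (488/510 nm) background-subtracted and normalized to DMSO control and wt-CFTR-expressing cells.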

[2] = target: T2, 14-3-3β/CFTRpS753pS768 complex (Homo sapiens, UniProt P13569+P31946); test: FP assay, 14-3-3β titration at constant compound concentration (apparent KD); type: binding; details: replicates
T2 construct: His6 (cleaved yes); made in house; peptide synthetic
T2 sequence (P31946 whole entry): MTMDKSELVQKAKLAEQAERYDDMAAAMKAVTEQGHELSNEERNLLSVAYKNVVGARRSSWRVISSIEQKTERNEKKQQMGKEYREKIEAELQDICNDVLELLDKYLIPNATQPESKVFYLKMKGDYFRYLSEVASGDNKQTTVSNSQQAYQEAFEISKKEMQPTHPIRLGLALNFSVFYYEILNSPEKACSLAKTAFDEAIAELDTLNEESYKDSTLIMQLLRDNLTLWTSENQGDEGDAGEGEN
T2 sequence (P13569 747-774 limits assumed): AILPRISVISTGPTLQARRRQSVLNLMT

T1 sequence (P13569 with tags, fused parts or gaps DEL508-508): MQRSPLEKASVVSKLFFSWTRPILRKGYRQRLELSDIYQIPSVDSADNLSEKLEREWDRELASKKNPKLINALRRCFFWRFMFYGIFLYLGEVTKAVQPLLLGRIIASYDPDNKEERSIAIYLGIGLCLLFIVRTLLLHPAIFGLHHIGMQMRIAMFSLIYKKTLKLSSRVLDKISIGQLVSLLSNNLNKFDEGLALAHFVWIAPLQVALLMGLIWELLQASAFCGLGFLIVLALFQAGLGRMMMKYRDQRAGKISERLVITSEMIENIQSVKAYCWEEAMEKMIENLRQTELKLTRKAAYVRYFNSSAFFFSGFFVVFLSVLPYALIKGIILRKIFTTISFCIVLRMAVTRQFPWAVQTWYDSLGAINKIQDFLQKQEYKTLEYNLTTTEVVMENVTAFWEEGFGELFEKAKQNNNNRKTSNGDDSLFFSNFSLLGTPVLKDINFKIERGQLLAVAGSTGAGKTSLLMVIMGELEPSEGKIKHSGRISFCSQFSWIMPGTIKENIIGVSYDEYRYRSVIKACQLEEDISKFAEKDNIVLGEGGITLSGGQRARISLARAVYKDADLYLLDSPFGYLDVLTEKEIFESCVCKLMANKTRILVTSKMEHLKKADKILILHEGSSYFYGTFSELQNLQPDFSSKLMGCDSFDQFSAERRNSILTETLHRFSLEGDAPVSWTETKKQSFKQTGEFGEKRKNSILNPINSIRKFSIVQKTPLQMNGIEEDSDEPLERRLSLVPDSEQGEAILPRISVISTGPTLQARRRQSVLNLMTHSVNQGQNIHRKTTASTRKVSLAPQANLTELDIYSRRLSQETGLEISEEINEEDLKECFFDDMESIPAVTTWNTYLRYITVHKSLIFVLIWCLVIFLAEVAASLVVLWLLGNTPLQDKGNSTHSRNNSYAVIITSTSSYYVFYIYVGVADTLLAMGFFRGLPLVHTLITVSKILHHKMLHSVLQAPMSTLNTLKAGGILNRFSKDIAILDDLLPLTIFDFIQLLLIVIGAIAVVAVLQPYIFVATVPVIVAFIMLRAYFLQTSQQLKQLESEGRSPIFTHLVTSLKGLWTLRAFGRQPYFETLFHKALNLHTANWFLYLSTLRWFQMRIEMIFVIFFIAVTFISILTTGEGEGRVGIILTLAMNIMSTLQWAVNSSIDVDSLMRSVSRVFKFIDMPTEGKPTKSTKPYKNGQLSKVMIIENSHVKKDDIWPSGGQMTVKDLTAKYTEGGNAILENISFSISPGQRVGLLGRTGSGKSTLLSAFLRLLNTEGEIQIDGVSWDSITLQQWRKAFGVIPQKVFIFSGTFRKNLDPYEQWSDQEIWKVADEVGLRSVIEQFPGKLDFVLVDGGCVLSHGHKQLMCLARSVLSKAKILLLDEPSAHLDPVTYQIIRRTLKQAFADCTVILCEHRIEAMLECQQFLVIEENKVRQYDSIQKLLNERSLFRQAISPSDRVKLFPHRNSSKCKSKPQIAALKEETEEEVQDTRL

FP signal, 14-3-3β titration ([2]; 14-3-3β 7.62939e-9 M, FC-A + CY compound): 7 and 2 and -1
FP signal, 14-3-3β titration ([2]; 14-3-3β 7.62939e-9 M, compound 100 μM): 6 and 5
FP signal, 14-3-3β titration ([2]; 14-3-3β 1.52588e-8 M, FC-A + CY compound): 5 (2×) and 6
FP signal, 14-3-3β titration ([2]; 14-3-3β 1.52588e-8 M, compound 100 μM): 0 and 3 and 4
FP signal, 14-3-3β titration ([2]; 14-3-3β 3.05176e-8 M, FC-A + CY compound): 12 and 13 and 8
FP signal, 14-3-3β titration ([2]; 14-3-3β 3.05176e-8 M, compound 100 μM): 4 and 5 and 3
FP signal, 14-3-3β titration ([2]; 14-3-3β 6.10352e-8 M, FC-A + CY compound): 19 and 17 (2×)
FP signal, 14-3-3β titration ([2]; 14-3-3β 6.10352e-8 M, compound 100 μM): 3 (2×) and 5
FP signal, 14-3-3β titration ([2]; 14-3-3β 1.2207e-7 M, FC-A + CY compound): 30 and 33 and 27
FP signal, 14-3-3β titration ([2]; 14-3-3β 1.2207e-7 M, compound 100 μM): 6 and 5 and 8
FP signal, 14-3-3β titration ([2]; 14-3-3β 2.44141e-7 M, FC-A + CY compound): 51 and 57 and 45
FP signal, 14-3-3β titration ([2]; 14-3-3β 2.44141e-7 M, compound 100 μM): 8 (2×) and 7
FP signal, 14-3-3β titration ([2]; 14-3-3β 4.88281e-7 M, FC-A + CY compound): 76 and 79 and 69
FP signal, 14-3-3β titration ([2]; 14-3-3β 4.88281e-7 M, compound 100 μM): 10 and 8 and 12
FP signal, 14-3-3β titration ([2]; 14-3-3β 9.76563e-7 M, FC-A + CY compound): 99 and 95 and 89
FP signal, 14-3-3β titration ([2]; 14-3-3β 9.76563e-7 M, compound 100 μM): 16 and 15 and 18
FP signal, 14-3-3β titration ([2]; 14-3-3β 1.95313e-6 M, FC-A + CY compound): 108 (2×) and 110
FP signal, 14-3-3β titration ([2]; 14-3-3β 1.95313e-6 M, compound 100 μM): 24 (2×) and 28
FP signal, 14-3-3β titration ([2]; 14-3-3β 3.90625e-6 M, FC-A + CY compound): 119 (2×) and 117
FP signal, 14-3-3β titration ([2]; 14-3-3β 3.90625e-6 M, compound 100 μM): 31 and 32 and 33
FP signal, 14-3-3β titration ([2]; 14-3-3β 7.8125e-6 M, FC-A + CY compound): 126 and 127 and 121
FP signal, 14-3-3β titration ([2]; 14-3-3β 7.8125e-6 M, compound 100 μM): 35 and 40 and 41
FP signal, 14-3-3β titration ([2]; 14-3-3β 1.5625e-5 M, FC-A + CY compound): 132 and 128 and 129
FP signal, 14-3-3β titration ([2]; 14-3-3β 1.5625e-5 M, compound 100 μM): 49 and 50 and 52
FP signal, 14-3-3β titration ([2]; 14-3-3β 3.125e-5 M, FC-A + CY compound): 138 and 136 and 135
FP signal, 14-3-3β titration ([2]; 14-3-3β 3.125e-5 M, compound 100 μM): 64 and 62 and 65
FP signal, 14-3-3β titration ([2]; 14-3-3β 6.25e-5 M, FC-A + CY compound): 143 and 145
FP signal, 14-3-3β titration ([2]; 14-3-3β 6.25e-5 M, compound 100 μM): 87 and 83 and 85
FP signal, 14-3-3β titration ([2]; 14-3-3β 0.000125 M, FC-A + CY compound): 156 and 151 and 152
FP signal, 14-3-3β titration ([2]; 14-3-3β 0.000125 M, compound 100 μM): 104 and 106 and 103
FP signal, 14-3-3β titration ([2]; 14-3-3β 0.00025 M, FC-A + CY compound): 165 and 159 and 157
FP signal, 14-3-3β titration ([2]; 14-3-3β 0.00025 M, compound 100 μM): 119 (2×) and 122
FP signal, 14-3-3β titration ([2]; 14-3-3β 0.0005 M, FC-A + CY compound): 177 and 175 and 169
FP signal, 14-3-3β titration ([2]; 14-3-3β 0.0005 M, compound 100 μM): 151 and 144 and 146
Compound: N=C(N)NCCCC1NC(=O)C(CCC(N)=O)NC(=O)C(CCCNC(=N)N)NC(=O)C2CCCN2Cc2ccccc2Sc2ccccc2CNC1=O (centres unmarked) [CY007502]
F508del-CFTR surface expression signal (Fig5a) [1]: 344.243 and 408.371 and 366.875 and 405.395
